Assay results taken from ChEMBL document CHEMBL1201862, “PubChem BioAssay data set” (2004).
Active and inactive are the calls of the source.

Key:
[1] = target: T1, Mannose-6-phosphate isomerase (Homo sapiens, UniProt P34949); assay: MPI inhibition at elevated mannose 6-phosphate – biochemical, fluorescence intensity, high mannose 6-phosphate, primary screen (AID 1220)
T1 sequence (P34949 whole entry): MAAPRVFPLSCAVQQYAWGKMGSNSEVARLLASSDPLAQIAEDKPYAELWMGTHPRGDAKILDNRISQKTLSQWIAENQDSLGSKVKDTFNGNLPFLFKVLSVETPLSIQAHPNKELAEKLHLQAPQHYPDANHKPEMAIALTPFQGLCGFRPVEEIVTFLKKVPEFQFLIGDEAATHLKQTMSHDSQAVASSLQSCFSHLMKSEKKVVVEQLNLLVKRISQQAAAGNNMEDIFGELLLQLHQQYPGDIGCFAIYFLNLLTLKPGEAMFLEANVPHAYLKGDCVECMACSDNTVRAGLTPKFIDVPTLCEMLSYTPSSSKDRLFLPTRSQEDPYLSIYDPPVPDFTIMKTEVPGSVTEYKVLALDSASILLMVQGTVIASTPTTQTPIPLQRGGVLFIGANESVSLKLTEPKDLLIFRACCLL

[2] = viability loss in THP-1 monocytes – THP-1 cells, cytotoxicity control for Vif-APOBEC3G degradation inhibitor project, dose response (AID 1117359); format: functional; conditions: THP-1
[3] = system: INS1; assay: INS-1E survival protection against cytokine death – cell-based, luminescence, retest, dose response (AID 449756); format: functional; conditions: Rattus norvegicus;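 also: cell death triggered by IL-1 beta plus TNF-alpha plus IFN-gamma mixture; protective hits raise ATP signal compared with cytokine alone wells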
[4] = target: Eukaryotic translation initiation factor 4E (Mus musculus, UniProt P63073); assay: blockers of eIF4G binding by eIF4E – biochemical, TR-FRET, dose response (AID 855); format: functional;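 also: potency for disrupting eIF4E binding to eIF4GI seen as loss of FRET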
Eukaryotic translation initiation factor 4E, sequence (P63073 whole entry): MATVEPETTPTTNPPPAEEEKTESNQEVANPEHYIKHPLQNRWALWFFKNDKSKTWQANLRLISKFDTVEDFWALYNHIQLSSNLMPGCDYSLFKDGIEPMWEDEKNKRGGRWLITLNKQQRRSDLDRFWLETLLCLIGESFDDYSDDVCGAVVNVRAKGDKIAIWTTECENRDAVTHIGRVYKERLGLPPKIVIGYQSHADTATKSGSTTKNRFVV

[5] = target: Induced myeloid leukemia cell differentiation protein Mcl-1 (Homo sapiens, UniProt Q07820); format: functional
Induced myeloid leukemia cell differentiation protein Mcl-1, sequence (Q07820 whole entry): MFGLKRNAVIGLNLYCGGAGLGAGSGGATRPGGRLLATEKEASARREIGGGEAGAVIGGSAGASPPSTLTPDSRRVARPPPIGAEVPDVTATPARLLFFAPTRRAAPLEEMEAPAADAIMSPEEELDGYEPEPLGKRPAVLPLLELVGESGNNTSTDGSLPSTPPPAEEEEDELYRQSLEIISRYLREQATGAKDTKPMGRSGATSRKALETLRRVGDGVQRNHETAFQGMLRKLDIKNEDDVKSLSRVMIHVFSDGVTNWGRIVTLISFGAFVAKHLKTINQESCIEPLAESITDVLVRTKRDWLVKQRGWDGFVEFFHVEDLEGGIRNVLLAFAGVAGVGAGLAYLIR

[6] = target: T2, Long-chain-fatty-acid--AMP ligase FadD28 (Mycobacterium tuberculosis, UniProt P9WQ59); assay: Fluorescence polarization aasay to screen for inhibitors that compete for the binding of FadD28 to a bisubstrate Measured in Biochemical System Using Plate Reader - 2147-01_Inhibitor_Dose_CherryPick_Activity.; format: functional, Mycobacterium tuberculosis H37Rv
T2 sequence (P9WQ59 whole entry): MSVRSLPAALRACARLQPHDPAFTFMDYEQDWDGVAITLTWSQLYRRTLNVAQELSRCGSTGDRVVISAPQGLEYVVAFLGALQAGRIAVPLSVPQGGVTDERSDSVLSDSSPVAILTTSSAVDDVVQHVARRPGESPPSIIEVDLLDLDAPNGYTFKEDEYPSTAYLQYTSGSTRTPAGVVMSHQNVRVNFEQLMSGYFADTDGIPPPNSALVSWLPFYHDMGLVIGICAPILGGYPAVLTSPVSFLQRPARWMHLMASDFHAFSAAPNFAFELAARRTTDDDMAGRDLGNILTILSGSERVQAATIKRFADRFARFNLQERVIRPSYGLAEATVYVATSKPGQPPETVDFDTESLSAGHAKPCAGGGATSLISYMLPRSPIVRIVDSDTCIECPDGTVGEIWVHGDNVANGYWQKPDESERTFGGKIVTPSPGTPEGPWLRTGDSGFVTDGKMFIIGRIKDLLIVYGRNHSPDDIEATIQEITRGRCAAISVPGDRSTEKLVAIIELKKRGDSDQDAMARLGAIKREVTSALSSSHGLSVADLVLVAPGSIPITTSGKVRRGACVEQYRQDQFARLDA

[7] = target: UDP-galactopyranose mutase (Mycobacterium tuberculosis, UniProt P9WIQ1); assay: Inhibitors of Mycobacterium tuberculosis UDP-galactopyranose mutase (UGM) enzyme Measured in Biochemical System Using Plate Reader - 2105-02_Inhibitor_Dose_CherryPick_Activity. [Related pubchem assays (depositor defined):AID504439]
UDP-galactopyranose mutase, sequence (P9WIQ1 whole entry): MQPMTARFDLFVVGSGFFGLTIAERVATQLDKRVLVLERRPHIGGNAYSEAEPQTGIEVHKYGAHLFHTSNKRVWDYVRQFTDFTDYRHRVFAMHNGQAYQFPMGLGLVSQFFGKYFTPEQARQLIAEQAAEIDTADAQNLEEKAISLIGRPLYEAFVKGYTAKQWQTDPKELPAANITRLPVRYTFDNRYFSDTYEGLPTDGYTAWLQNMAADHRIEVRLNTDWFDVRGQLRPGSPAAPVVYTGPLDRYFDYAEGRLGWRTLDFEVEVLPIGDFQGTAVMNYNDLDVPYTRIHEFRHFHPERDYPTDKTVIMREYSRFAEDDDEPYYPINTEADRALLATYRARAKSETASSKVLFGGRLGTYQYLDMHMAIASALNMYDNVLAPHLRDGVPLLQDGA

[8] = target: Glucose-6-phosphate 1-dehydrogenase (Homo sapiens, UniProt P11413); assay: inhibition of Homo sapiens G6PD, dose series – biochemical, fluorescence, selectivity assay for P. falciparum G6PD inhibitor project, dose response (AID 504792); format: functional
[9] = target: T3, Dual specificity protein phosphatase 6 (Rattus norvegicus, UniProt Q64346); format: functional
T3 sequence (Q64346 whole entry): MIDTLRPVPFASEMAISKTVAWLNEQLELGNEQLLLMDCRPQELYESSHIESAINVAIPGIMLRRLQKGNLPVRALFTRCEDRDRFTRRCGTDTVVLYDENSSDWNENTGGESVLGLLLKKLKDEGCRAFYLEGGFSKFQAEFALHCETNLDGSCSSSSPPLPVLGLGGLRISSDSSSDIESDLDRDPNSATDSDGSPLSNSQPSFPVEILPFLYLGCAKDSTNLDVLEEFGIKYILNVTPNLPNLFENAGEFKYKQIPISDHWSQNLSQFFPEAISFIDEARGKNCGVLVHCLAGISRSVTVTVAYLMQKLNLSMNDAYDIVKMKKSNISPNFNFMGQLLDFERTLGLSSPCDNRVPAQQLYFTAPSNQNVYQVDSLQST

[10] = target: T4, Tyrosine-protein phosphatase non-receptor type 7 (Homo sapiens, UniProt P35236); format: functional
T4 sequence (P35236 whole entry): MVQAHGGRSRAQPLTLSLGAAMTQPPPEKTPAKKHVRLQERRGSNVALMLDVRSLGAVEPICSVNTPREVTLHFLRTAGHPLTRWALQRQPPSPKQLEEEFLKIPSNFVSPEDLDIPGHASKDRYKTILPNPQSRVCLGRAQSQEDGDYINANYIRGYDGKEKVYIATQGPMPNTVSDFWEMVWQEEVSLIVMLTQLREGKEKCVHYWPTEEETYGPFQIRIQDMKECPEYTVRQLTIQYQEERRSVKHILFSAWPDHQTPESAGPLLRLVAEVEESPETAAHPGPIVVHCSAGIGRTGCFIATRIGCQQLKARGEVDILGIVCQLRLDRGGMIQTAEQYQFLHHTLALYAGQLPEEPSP

[11] = target: T3, Dual specificity protein phosphatase 6
[12] = target: Glyceraldehyde-3-phosphate dehydrogenase (Homo sapiens, UniProt P04406)
Glyceraldehyde-3-phosphate dehydrogenase, sequence (P04406 whole entry): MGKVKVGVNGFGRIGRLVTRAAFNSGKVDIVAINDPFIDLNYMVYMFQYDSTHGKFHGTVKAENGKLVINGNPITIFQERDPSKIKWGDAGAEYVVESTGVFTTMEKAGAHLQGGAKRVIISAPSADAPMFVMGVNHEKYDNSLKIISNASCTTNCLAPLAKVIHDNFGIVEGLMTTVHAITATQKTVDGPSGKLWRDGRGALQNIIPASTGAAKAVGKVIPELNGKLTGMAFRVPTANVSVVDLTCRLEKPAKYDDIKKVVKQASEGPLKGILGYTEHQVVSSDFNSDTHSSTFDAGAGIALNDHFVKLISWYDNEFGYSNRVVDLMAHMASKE

[13] = target: Nuclear receptor subfamily 0 group B member 1 (Homo sapiens, UniProt P51843); assay: Luminescence-based cell-based high throughput dose response assay for inhibitors of the orphan nuclear receptor subfamily 0, group B, member 1 (DAX1; NR0B1). [Related pubchem assays (depositor defined):AID504766, AID504790]; format: functional
Nuclear receptor subfamily 0 group B member 1, sequence (P51843 whole entry): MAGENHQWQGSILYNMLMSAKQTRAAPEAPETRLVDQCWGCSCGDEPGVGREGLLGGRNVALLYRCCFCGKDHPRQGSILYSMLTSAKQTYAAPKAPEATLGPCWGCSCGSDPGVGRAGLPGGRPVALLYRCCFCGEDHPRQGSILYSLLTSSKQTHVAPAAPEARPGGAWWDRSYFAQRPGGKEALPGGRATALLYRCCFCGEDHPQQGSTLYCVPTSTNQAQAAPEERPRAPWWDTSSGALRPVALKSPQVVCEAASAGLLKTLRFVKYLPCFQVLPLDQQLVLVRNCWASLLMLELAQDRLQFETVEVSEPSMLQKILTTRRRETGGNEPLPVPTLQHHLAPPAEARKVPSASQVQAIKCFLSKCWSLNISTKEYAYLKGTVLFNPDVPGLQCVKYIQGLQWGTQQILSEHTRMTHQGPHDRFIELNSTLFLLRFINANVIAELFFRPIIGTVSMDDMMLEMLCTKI

[14] = system: HEK293; assay: cells; format: functional, cell-based; conditions: Homo sapiens
[15] = target: Voltage-gated inwardly rectifying potassium channel KCNH2 (Homo sapiens, UniProt Q12809); conditions: Potency;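 also: confirmatory quantitative high-throughput screen measuring inhibition of hERG channel activity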
Voltage-gated inwardly rectifying potassium channel KCNH2, sequence (Q12809 whole entry): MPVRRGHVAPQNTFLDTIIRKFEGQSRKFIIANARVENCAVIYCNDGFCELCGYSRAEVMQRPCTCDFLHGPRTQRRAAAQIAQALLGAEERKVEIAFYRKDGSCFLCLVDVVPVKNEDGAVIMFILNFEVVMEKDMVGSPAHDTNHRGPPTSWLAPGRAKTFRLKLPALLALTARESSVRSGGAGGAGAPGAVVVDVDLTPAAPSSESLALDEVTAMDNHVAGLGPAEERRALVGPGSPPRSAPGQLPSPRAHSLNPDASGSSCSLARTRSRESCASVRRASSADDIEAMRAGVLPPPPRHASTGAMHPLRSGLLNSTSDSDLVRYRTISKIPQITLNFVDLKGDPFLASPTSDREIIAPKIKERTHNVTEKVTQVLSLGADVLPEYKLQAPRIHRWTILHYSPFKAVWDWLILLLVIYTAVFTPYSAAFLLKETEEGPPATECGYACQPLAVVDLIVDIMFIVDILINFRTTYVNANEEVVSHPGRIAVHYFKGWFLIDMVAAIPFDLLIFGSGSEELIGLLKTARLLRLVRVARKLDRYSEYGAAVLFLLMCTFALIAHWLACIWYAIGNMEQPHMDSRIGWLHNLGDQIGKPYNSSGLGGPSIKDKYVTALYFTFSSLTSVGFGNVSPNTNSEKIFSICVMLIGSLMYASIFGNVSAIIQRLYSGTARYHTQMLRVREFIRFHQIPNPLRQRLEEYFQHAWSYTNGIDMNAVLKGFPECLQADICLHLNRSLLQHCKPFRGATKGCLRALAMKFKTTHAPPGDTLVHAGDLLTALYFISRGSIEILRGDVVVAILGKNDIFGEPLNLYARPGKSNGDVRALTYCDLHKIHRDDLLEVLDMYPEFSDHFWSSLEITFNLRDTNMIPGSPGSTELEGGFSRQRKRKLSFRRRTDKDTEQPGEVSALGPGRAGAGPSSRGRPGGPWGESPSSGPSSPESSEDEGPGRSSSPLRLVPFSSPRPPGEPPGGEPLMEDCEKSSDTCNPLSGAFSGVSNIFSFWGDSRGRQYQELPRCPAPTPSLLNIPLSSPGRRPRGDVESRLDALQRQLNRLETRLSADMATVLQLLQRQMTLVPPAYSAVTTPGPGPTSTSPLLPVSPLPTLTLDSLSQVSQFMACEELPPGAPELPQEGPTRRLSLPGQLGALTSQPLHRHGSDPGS

[16] = target: Delta-type opioid receptor (Homo sapiens, UniProt P41143); assay: Counterscreen for agonists of heterodimerization of the mu 1 (OPRM1) and delta 1 (OPRD1) opioid receptors: Luminescence-based cell-based high throughput dose response assay to identify agonists of OPRD1 homodimerization. [Related pubchem assays (depositor defined):AID504326, AID504355, AID504692, AID504904, AID504905]; format: functional
Delta-type opioid receptor, sequence (P41143 whole entry): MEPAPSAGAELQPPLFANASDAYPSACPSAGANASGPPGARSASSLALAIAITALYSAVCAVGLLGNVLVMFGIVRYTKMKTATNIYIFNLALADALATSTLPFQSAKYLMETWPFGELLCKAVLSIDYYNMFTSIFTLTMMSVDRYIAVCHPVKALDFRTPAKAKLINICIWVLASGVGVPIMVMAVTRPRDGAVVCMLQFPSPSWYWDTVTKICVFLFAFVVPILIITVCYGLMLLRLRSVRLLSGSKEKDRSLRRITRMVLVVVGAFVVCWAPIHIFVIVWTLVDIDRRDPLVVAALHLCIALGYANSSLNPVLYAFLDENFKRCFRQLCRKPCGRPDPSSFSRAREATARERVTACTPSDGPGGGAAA

[17] = Vero E6 cell cytotoxicity, dose response, cytotoxicity control for non-replicating M. tuberculosis project, secondary assay (AID 492998); format: functional, VeroE6; conditions: Vero C1008
[18] = cells; format: functional
[19] = THP-1 cell cytotoxicity, dose response, cytotoxicity control for non-replicating M. tuberculosis project (AID 489025); format: functional
[20] = target: 5-hydroxytryptamine receptor 5A (Homo sapiens, UniProt P47898); assay: Counterscreen for agonists of OPRM1-OPRD1 heterodimerization: luminescence-based cell-based high throughput dose response assay to identify agonists of 5-hydroxytryptamine (serotonin) 5A receptor (HTR5A). [Related pubchem assays (depositor defined):AID504326, AID504355, AID504692, AID504904, AID504905]; format: functional
5-hydroxytryptamine receptor 5A, sequence (P47898 whole entry): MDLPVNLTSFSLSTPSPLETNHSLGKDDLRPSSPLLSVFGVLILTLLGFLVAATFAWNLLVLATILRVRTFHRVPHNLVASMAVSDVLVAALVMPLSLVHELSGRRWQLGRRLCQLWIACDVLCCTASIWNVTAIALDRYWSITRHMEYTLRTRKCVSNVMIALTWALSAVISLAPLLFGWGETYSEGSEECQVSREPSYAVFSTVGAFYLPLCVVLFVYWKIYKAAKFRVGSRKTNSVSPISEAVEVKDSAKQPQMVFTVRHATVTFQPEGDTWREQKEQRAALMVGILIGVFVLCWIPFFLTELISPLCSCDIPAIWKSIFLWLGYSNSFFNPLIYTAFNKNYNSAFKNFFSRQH

[21] = target: Sphingosine 1-phosphate receptor 2 (Homo sapiens, UniProt O95136); assay: Dose Response Cell Based Assay for Antagonists of the S1P2 Receptor. [Related pubchem assays: 856, 736 ]; format: functional
Sphingosine 1-phosphate receptor 2, sequence (O95136 whole entry): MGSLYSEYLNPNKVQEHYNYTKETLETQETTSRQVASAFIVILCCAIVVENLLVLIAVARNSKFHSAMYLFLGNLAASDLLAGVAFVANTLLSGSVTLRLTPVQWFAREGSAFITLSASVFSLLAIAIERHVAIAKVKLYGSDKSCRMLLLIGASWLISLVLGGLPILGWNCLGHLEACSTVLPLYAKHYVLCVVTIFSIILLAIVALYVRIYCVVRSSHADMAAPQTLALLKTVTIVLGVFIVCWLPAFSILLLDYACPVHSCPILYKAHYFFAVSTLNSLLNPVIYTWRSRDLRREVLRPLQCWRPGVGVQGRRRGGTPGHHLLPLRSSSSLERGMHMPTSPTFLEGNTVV

[22] = target: T5, High affinity choline transporter 1 (Homo sapiens, UniProt Q9GZV3); assay: human choline transporter blockers, potency – cell-based, 5-point CRC, membrane potential dye, dose response (AID 504840); format: functional
T5 sequence (Q9GZV3 whole entry): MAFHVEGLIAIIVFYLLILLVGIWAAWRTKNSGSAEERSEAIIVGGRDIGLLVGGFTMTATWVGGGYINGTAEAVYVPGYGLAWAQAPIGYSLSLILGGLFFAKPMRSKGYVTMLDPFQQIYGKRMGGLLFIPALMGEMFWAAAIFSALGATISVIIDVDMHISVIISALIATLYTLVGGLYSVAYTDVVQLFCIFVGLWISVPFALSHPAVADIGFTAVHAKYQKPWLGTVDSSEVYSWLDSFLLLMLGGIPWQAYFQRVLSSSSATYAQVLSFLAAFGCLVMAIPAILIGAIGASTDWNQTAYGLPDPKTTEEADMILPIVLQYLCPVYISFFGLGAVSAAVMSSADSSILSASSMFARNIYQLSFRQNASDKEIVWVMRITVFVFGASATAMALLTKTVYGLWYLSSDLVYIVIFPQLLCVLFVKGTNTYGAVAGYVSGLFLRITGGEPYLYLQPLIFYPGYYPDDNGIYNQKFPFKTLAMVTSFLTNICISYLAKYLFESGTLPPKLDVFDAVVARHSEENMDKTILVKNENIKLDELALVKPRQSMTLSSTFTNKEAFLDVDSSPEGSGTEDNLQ

[23] = viability of PTEN-deleted HCT116 cells – cell-based, HCT116 PTEN knockout, dose response (AID 1047); format: functional;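 also: HCT116 colon tumor cells with PTEN knocked out; cells exposed to compound for 60 hours before readout; potency for loss of cell viability measured by luminescence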
[24] = viability of HCT116 lacking mutant beta-catenin – cell-based, human colon tumor, dose response (AID 1045); format: functional;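 also: HCT116 colon tumor cells with beta catenin knocked out; cells exposed to compound for 60 hours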
[25] = target: Heat shock protein HSP 90-alpha (Homo sapiens, UniProt P07900); format: functional, organism-based
[26] = target: Mu-type opioid receptor (Homo sapiens, UniProt P35372); assay: Counterscreen for agonists of heterodimerization of the mu 1 (OPRM1) and delta 1 (OPRD1) opioid receptors: Luminescence-based cell-based high throughput dose response assay to identify agonists of OPRM1 homodimerization.; format: functional;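 also: U2OS cells expressing OPRM1 and beta-arrestin as split beta-galactosidase partners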
Mu-type opioid receptor, sequence (P35372 whole entry): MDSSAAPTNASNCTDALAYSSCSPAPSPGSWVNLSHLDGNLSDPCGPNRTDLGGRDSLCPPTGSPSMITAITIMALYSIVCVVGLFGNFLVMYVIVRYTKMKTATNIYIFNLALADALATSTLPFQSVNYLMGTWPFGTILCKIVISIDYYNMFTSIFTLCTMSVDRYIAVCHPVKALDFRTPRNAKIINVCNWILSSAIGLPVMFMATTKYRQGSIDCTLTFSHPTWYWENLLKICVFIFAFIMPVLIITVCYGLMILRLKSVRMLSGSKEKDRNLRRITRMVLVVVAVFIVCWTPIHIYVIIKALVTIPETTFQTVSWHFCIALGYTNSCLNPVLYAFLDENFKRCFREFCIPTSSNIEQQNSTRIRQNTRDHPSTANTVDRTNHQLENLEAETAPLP

[27] = Luminescence Cell-Based Dose Response Follow up to Identify Inhibitors of Platelet Dense Granule Release. [Related pubchem assays (depositor defined):AID1663, AID1678, AID1889, AID2519]; format: functional
[28] = target: Luciferin 4-monooxygenase (Photinus pyralis, UniProt P08659); assay: inhibition of purified Photinus pyralis luciferase – biochemical, luminescence, dose response (AID 1891)
Luciferin 4-monooxygenase, sequence (P08659 whole entry): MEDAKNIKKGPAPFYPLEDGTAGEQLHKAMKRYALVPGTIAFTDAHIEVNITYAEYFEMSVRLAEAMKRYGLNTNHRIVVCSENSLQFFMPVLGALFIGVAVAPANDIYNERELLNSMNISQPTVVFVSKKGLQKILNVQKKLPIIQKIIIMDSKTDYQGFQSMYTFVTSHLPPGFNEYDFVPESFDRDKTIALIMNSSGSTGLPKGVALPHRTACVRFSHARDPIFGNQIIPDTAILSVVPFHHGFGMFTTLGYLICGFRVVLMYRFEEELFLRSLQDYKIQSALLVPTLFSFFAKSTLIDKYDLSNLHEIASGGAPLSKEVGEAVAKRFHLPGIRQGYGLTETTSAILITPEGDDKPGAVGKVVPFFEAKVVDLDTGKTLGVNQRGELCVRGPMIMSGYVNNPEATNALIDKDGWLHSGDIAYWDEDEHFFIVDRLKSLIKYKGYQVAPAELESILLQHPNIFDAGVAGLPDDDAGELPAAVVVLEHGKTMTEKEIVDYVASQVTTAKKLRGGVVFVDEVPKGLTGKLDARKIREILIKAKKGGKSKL

[29] = Luminescence Cell-Based Dose Confirmation HTS to Identify Inhibitors of Platelet Dense Granule Release. [Related pubchem assays: 1663 (Primary HTS), 1678 (Summary of Project)]; format: functional
[30] = PAR1 agonist-induced platelet activation inhibition – cell-based, fluorescence, flow cytometry, human platelets, dose response (AID 2511); format: functional

With `COc1cc(/C=C2\CC/C(=C\c3cc(OC)c(O)c(OC)c3)C2=O)cc(OC)c1O` the IC50 [1] was 24.7 µM (active), the CC50 [2] was 3.3 µM (active) and the AC50 [3] was 4.41 µM (active). For the same molecule, the IC50 [4] was > 64 µM (inactive), the IC50 [5] was 5.75 µM (active) and the AC50 [6] was 86.6 µM (active). The AC50 [7] was 8.22 µM (active) and the IC50 [8] was > 80 µM (inactive).

In the case of `Cc1ccccc1Cn1c(=O)n(-c2ccccc2)c(=O)n([C@H](C(=O)O)C(C)C)c1=O`, the IC50 [9] is reported as > 100 µM (inactive), the IC50 [10] is reported as > 100 µM (not active) and the IC50 [11] is reported as > 100 µM (inactive). The IC50 [12] was > 100 µM (not active).

In the case of `COc1ccc(-c2csc(Nc3cccc(C)n3)n2)cc1`, the IC50 [13] is reported as > 67.5 µM (inactive) and the IC50 [14] is reported as > 67.5 µM (inactive).

For `CCN(CC)C(=O)N[C@@H]1C[C@@H]2c3cccc4[nH]cc(c34)C[C@H]2N(C)C1`, the AC50 [15] was 25.1 µM (inconclusive).

With `CC1=C/C(=N\OS(=O)(=O)c2ccccc2)C(C)=CC1=O` the EC50 [16] was > 92.5 µM (inactive), the IC50 [1] was 3.73 µM (active) and the CC50 [17] was 15.6 µM (active). For the same molecule, the IC50 [18] was 3.09 µM (active), the CC50 [19] was 12 µM (active) and the EC50 [20] was > 92.5 µM (inactive). For the same molecule, the IC50 [21] was 3.71 µM (active), the AC50 [3] was 1.17 µM (active) and the IC50 [22] was 12.3 µM (active). The EC50 [23] was 14.5 µM (active), the EC50 [24] was 16.4 µM (active) and the AC50 [25] was 0.554 µM (active). For the same molecule, the EC50 [26] was > 92.5 µM (inactive).

For `CCCCC(=O)Nc1cccc(NC(=O)c2ccccc2Br)c1`, the EC50 [27] was 500 µM (inactive), the EC50 [28] was > 112 µM (not active) and the EC50 [29] was 6.9 µM (active). The EC50 [30] was < 3 µM (active).
